pIC50: −log10 of the molar value. Marks after values point to notes of the source that are not given here.
Key:
[1] = system: A549 subcutaneous xenograft; assay: Efficacy study in subcutaneous A549 xenograft model (tumor volume, tumor weight, TGI); assay type: in vivo, BALB/c nude mice; details: for Volume-based TGI(%) / Weight-based TGI(%): Day 21, P < 0.001
Protocol: The efficacy of compound 82c was studied in vivo for the treatment of A549 subcutaneous xenograft model in BALB/c nude mice. Seventy-five BALB/c nude female mice were injected cell A549 at 1×10^7 per mouse.
Fifty mice were selected and assigned into five groups using randomized block design based upon their tumor volumes and 10 mice per group. The 5 groups were treated p.o. with vehicle (0.5% NaCMC 0.1% Tween pH4), compound 82c 5 mg/kg BIDx21, 12.5 mg/kg BIDx10/QDx11, 25 mg/kg BIDx7/QDx14 and 50 mg/kg QDx10/3 days off/30 mg/kg QDx8.
All mice from 12.5 mg/kg BID were adjusted from BID to QD from treatment Day 11 until to the end of the study. #36˜#40 mice from group 25 mg/kg BID were compound administration holiday due to mice body weight loss. All mice from group 25 mg/kg BID were adjusted from BID to QD from treatment Day 8. All mice from group 50 mg/kg QD were compound administration holiday from Day 11 to Day 13 due to mice body weight loss and this group was adjusted from 50 mg/kg to 30 mg/kg until the end of the study.
Tumor Inoculation. Each mouse was inoculated subcutaneously at the right flank with A549 tumor cells (1×10^7 cells/mouse) in 0.2 mL of base media (F12K) for tumor development. The treatments were started when the tumor size reached 126.94 mm^3 for the tumor efficacy study (Day 14 post inoculation). Fifty tumor-bearing mice were block randomized into 5 groups with 10 mice in each.
Tumor Measurements and Endpoints. The major endpoint was tumor growth delay or cure. Tumor size was measured twice weekly in two dimensions using a caliper, and the volume was expressed in mm^3 using the formula: V=0.5 a×b^2 where a and b were the long and short diameters of the tumor, respectively. The tumor size was then used for calculations of T/C (%) values. T/C (%) was calculated according to the following equation: T/C (%)=TRTV/CRTV×[…] TRTV=TVtreatment-Dn/TVtreatment-D1, CRTV=TVcontrol-Dn/TVcontrol-D1, T/C (%)<42%, it was considered to be effective. The tumor size was then used for calculations of TGI (%) values. TGI (%) was calculated according to the following equation: TGI (%)=(1−(TVTreatment/Dx−TVTreatment/D1)/(TVControl/Dx−TVControl/D1))×100%, TGI[…]58 means this medicine is effective. The tumor weight was then used for calculations of TGI (%) values. TGI (%) was calculated according to the following equation: TGI (%)=(1−TWTreatment/TWControl)×100%
Statistical Analysis. Summary statistics, including mean and the standard error of the mean (SEM), were provided for the tumor volumes of each group at each time point. Statistical analyses of difference in tumor volumes among the groups were conducted on Day 21 after the last dose. Statistical analysis of difference in tumor volume and tumor weight among the groups was conducted. All data was analyzed using GraphPad Prism software. P<0.05 was considered to be statistically significant. A two-way ANOVA combined with Bonferroni post-test was performed to compare tumor volumes among vehicle and all treatment groups. A one-way ANOVA combined with Dunnett's Multiple Comparison Test to compare tumor weight among vehicle and all treatment groups.

SMARCA2 = biological target: T1, SMARCA2 (Homo sapiens, UniProt P51531); assay: SMARCA2 FRET nucleosome remodeling activity assay; assay type: biochemical
T1 construct: FLAG tag (YKDDDDK) (C); made in house; host or cells: Sf21 insect cells (baculovirus, pFastBacI)
T1 sequence (P51531 with tags, fused parts or gaps): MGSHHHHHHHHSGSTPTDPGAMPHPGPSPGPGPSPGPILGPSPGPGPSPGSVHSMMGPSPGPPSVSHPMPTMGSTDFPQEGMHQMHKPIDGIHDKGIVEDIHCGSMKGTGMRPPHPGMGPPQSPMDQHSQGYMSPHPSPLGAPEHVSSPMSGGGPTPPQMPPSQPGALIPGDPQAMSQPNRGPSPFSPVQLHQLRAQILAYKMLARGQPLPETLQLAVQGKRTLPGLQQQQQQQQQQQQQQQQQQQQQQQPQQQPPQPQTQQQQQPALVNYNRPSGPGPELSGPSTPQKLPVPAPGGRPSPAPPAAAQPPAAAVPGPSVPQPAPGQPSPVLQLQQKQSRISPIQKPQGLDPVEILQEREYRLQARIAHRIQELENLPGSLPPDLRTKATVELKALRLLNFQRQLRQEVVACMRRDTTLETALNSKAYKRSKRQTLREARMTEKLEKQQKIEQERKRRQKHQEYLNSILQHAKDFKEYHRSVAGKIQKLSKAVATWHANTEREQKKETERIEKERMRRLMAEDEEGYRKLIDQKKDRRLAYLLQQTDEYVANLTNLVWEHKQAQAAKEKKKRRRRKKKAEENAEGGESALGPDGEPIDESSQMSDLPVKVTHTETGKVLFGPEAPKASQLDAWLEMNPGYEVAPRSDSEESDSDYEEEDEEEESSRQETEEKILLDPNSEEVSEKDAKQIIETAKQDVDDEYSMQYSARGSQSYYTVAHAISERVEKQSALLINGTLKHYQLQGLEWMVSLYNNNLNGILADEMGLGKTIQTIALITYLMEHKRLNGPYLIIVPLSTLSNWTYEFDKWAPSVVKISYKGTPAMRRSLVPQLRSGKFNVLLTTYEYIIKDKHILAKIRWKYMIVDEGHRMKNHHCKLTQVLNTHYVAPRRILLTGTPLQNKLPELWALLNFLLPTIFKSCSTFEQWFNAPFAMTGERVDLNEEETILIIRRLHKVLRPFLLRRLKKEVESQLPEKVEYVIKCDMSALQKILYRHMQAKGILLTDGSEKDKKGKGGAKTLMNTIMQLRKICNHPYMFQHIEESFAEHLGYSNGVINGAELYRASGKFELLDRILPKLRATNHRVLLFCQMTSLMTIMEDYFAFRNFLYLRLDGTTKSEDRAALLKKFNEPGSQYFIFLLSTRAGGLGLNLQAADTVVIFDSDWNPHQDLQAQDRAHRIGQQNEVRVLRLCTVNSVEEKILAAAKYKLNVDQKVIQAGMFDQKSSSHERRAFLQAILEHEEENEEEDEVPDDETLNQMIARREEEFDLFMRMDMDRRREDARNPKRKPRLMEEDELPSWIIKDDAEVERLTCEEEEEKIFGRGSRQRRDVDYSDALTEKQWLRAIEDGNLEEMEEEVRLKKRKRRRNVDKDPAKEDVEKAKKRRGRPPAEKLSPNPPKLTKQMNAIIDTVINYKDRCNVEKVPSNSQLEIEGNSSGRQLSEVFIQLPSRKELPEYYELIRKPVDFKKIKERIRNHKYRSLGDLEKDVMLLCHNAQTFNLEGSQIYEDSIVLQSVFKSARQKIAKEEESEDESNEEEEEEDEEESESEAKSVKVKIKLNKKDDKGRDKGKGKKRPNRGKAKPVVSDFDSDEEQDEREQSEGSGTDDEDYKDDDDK
Protocol: The SMARCA2 remodeling assay was initiated by the addition of 2 uL of a nucleosome remodeling assay substrate and ATP mixture (final volume=10 uL). […] The assays were terminated after 15 minutes by the addition of 2 uL EDTA (final concentration of 25 mM). The SMARCA2 remodeling activity was determined by measuring the fluorescence ratio of the Cy3 and Cy5 labels ([…]). The remodeling of the nucleosome substrate causes an increase in the spacing between the Cy3 and Cy5 labels and therefore a reduction in FRET and an increase in Cy3/Cy5 fluorescence ratio.

[2] = 50 mg/kg QD×10, 3 days off, 30 mg/kg QD×8, p.o.

Row | pIC50 (SMARCA2) | SMILES | Tumor Volume (mm^3), Day 21 ([1]; 5 mg/kg BID×21, p.o.) [mm^3] | Tumor Weight (g), Day 21 ([1]; 5 mg/kg BID×21, p.o.) [g] | Volume-based TGI(%) ([1]; 5 mg/kg BID×21, p.o.) | Weight-based TGI(%) ([1]; 5 mg/kg BID×21, p.o.) | Tumor Volume (mm^3), Day 21 ([1]; 12.5 mg/kg BID×10 QD×11, p.o.) [mm^3] | Tumor Weight (g), Day 21 ([1]; 12.5 mg/kg BID×10 QD×11, p.o.) [g] | Volume-based TGI(%) ([1]; 12.5 mg/kg BID×10 QD×11, p.o.) | Weight-based TGI(%) ([1]; 12.5 mg/kg BID×10 QD×11, p.o.) | Tumor Volume (mm^3), Day 21 ([1]; 25 mg/kg BID×7 QD×14, p.o.) [mm^3] | Tumor Weight (g), Day 21 ([1]; 25 mg/kg BID×7 QD×14, p.o.) [g] | Volume-based TGI(%) ([1]; 25 mg/kg BID×7 QD×14, p.o.) | Weight-based TGI(%) ([1]; 25 mg/kg BID×7 QD×14, p.o.) | Tumor Volume (mm^3), Day 21 [1, 2] [mm^3] | Tumor Weight (g), Day 21 [1, 2] [g] | Volume-based TGI(%) [1, 2] | Weight-based TGI(%) [1, 2]
1 |  | N#Cc1cc(C(=O)Nc2cc(F)c(=O)n(CC(F)F)c2)sc1C(F)(F)F [Compound 82c, 4-cyano-N-[1-(2,2-difluoroethyl)-5-fluoro-6-oxopyridin-3-yl]-5-(trifluoromethyl)thiophene-2-carboxamide] | 737.75 ± 78.79 | 0.773 ± 0.052 | 57.01* % | 47.23* % | 579.14 ± 59.39 | 0.609 ± 0.063 | 68.31* % | 58.44* % | 469.53 ± 70.97 | 0.509 ± 0.077 | 75.87* % | 65.26* % | 461.87 ± 60.61 | 0.496 ± 0.058 | 76.56* % | 66.17* %
2 | 7.60 | N#Cc1sc(C(=O)Nc2cc(F)c(=O)n(CCF)c2)cc1Cl [Compound 139] |  |  |  |  |  |  |  |  |  |  |  |  |  |  |  | 
3 | 7.33 | O=C(Nc1cc(F)c(=O)n(CC(F)F)c1)c1cc(Cl)c(C(F)(F)F)s1 [Compound 298, 4-Chloro-N-(1-(2,2-difluoroethyl)-5-fluoro-6-oxo-1,6-dihydropyridin-3-yl)-5-(trifluoromethyl)thiophene-2-carboxamide] |  |  |  |  |  |  |  |  |  |  |  |  |  |  |  | 

— patent US20220356174A1, “PYRIDIN-2-ONE COMPOUNDS USEFUL AS SMARCA2 ANTAGONISTS” (Epizyme, Inc., priority 2018, published 2022)
